Laboratory results published in patent US8044056B2, “Adenine compound” (priority 2007, dated 2011).

What follows are molecules tested against T1, Human TLR7 (Homo sapiens, UniProt Q9NYK1) (assay: Human TLR7 reporter assay (NF-kB-SEAP)). Settings: HEK293 cells stably carrying human TLR7 plasmid and NF-kB-SEAP reporter; 20 hours incubation; 1 nM-10 μM; absorbance 405 nm; read-out: Human TLR7 binding activity (pEC50) (converted).
T1 construct: expressed in transfected cells; host or cells: HEK293 (hTLR7/seap-293)
T1 sequence (Q9NYK1 27-1049): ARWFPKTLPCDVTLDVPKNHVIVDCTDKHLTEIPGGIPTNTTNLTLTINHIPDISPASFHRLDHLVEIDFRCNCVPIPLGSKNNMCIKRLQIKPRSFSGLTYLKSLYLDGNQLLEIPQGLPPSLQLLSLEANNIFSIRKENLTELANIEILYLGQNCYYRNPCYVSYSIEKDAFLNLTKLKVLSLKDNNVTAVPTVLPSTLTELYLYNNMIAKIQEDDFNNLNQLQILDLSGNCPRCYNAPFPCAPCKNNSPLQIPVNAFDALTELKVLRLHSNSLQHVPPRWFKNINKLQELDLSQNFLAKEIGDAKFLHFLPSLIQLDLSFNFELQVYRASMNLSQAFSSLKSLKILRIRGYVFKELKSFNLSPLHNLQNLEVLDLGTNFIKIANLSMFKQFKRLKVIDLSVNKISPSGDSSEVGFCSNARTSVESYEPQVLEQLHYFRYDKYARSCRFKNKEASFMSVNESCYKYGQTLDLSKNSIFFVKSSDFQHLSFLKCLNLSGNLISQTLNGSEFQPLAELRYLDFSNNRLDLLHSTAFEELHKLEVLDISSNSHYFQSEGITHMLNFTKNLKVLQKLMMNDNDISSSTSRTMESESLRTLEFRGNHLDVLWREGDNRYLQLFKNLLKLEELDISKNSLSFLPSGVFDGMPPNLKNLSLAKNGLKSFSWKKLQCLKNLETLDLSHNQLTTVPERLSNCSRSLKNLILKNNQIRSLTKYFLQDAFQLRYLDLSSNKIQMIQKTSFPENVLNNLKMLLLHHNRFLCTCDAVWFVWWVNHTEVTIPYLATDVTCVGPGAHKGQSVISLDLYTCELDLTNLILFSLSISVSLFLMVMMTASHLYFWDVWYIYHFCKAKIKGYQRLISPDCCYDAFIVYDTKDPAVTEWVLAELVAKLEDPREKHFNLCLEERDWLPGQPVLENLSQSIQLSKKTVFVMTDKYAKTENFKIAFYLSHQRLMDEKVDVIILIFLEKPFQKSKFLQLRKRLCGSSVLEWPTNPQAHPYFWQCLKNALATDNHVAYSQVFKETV
Format: cell-based
Method: Human TLR7 or rat TLR7 plasmid and a reporter plasmid (NF-kB-SEAP) stably-induced HEK293 cells were suspended in DMEM media (10% FBS, 1% NEAA, 10 μg/mL blastocidin S HCl, 100 ug/mL Zeocin), and the suspension was seeded on a 96-well plate in an amount of 90 μl/well (hTLR7/seap-293: 20000 cells/well, rTLR7/seap-293: 25000 cells/well).
To the cells seeded on the 96-well plate was added a test compound wherein DMSO stock solution (2 μl) was hundredfold diluted with medium (200 μl) in an amount of 10 μl/well (final concentration; 1 nM-10 μM, common ratio 3). The mixture was stirred by tapping in the side of the plate, and then incubated for 20 hours in a CO2 incubator. To the cells stimulated by a test compound was added a substrate for reporter assay (substrate for SEAP, pNPP) in an amount of 50 μl/well. Ten minutes after the addition of the substrate, a quenching solution (4N NaOH) was added in an amount of 50 μl/well, and the enzymatic reaction was quenched. Top seal A was attached on the plate, and the absorbance was measured by microplate reader (405 nm).

Question: How did the EC50 turn out when CCCCOc1nc(N)c2[nH]c(=O)n(CCCCCCCN3CCN(c4ccc(OC)cc4)CC3)c2n1 [Example 8, 2-Butoxy-7,8-dihydro-9-(7-[4-(4-methoxyphenyl)piperazin-1-yl]heptyl)-8-oxoadenine] was run?
Answer: The EC50 was 251 nM.

Question: CCCCOc1nc(N)c2[nH]c(=O)n(CCCCCCCN3CCN(c4ccncc4)CC3)c2n1 [Example 6, 2-Butoxy-7,8-dihydro-9-(7-[4-(4-pyridyl)piperazin-1-yl]heptyl)-8-oxoadenine] was tested. Which EC50 did it give?
Answer: Its EC50 is 31.6 nM.

Question: With CCCCOc1nc(N)c2[nH]c(=O)n(CCCCCCCN3CCC(Oc4ccc(Cl)cc4C)CC3)c2n1 [Example 7, 2-Butoxy-9-(7-[4-(4-chloro-2-methylphenoxy)piperidin-1-yl]heptyl)-7,8-dihydro-8-oxoadenine] as the molecule, how does the EC50 read?
Answer: Its EC50 is 631 nM.

Question: Which EC50 does the source give for CCCCOc1nc(N)c2[nH]c(=O)n(CCCCCCCN3CCN(c4ccc(C(C)=O)cc4)CC3)c2n1 [Example 5, 9-(7-[4-(4-Acetylphenyl)piperazin-1-yl]heptyl-2-butoxy-7,8-dihydro)-8-oxoadenine] here?
Answer: Its EC50 is 158 nM.

Question: How did the EC50 turn out when CCCCOc1nc(N)c2[nH]c(=O)n(CCCN3CCN(C/C=C/c4ccccc4)CC3)c2n1 [Example 4, 2-Butoxy-9-(3-[4-cinnamylpiperazin-1-yl]propyl)-7,8-dihydro-8-oxoadenine] was run?
Answer: The EC50 was 794 nM.
